The values below come from patent US5086054A, “Novel arylcycloalkanepolyalkylamines” (SRI International, priority 1990, dated 1992).

Several values for one entry are separate records, joined by “and”; a condition that tells them apart may be missing. Identical values can stand only once. Entries after “also recorded” stand apart in the source; their conditions may differ. Counter-ions that a name gives are not always drawn. Like-named read-outs stand apart in the source and are kept apart here.

The target in assay [1] is T1, SIGMA RECEPTOR (Cavia porcellus, UniProt Q60492).
T1 construct: Two milliter aliquots of the brain membrane preparation, containing 1.7 mg of protein; tissue Pel-Freeze (Rogers, Arkansas); host or cells: guinea-pig brains plus cerebella, membranes
Briefly: Sigma receptor binding assay ([3H]-d-SKF-10,047 displacement, brain membranes). Set-up: species or system guinea-pig (male Hartley). The conditions noted are these: for SIGMA RECEPTOR SLOPE: slope of dose response curve. The method, then:
(§1) This example illustrates testing of compounds in receptor binding assays.
(§2) Frozen brains from male Hartley guinea-pigs were obtained from Pel-Freeze (Rogers, Arkansas).
(§3) The brains plus cerebella were homogenized in 10 volumes (v/w) of 0.1M, pH 7.4, ice-cold Tris-HCl buffer with a Brinkmann polytron at setting 4 for 20 seconds. The homogenates were centrifuged at 20,000×g for 20 minutes at 4° C. The pellets were suspended in 10 volumes of ice-cold water and, after sitting on ice for 10 minutes, were centrifuged 30 minutes at 20,000×g at 4° C. The resulting pellets were resuspended in the above Tris buffer in ratio 1:100 (w/v) for σ receptor assays or in 5 mM Tris-HCl having pH 7.4, for PCP receptor assays. The final suspension was homogenized with a dounce glass-glass tissue grinder Wheaton "200", at small clearance (B), with three strokes before use. Two milliter aliquots of the brain membrane preparation, containing 1.7 mg of protein, were incubated in quadruplicate for one hour at 23° C. with competing mixture of ligand and radioligand. For σ receptors, [^3 H]-d-SKF-10,047, 2 nM was used. For PCP receptors, [^3 H] TCP [^3 H]-1-[1-(2-thienyl)cyclohexyl]piperidine), 1 nM was used. The nonspecific bindings were defined by 0.1 mM d-SKF-10,047 and 0.1 mM phencyclidine respectively for σ and PCP receptors. After incubation, free ligand was separated from bound ligand by rapid filtration through Whatman GF/C filters. The filters had been soaked before use in isoamyl alcohol-saturated water to prevent nonspecific [^3 H]-d-SKF-10,047 binding to the filter. In the PCP receptor assay, the filter was soaked in 0.5% polyethylenimine to reduce the filter binding of [^3 H]-TCP. After filtration, the trapped tissue was washed three times with 4 ml aliquots of 0.1 M ice-cold Tris buffer at pH 7.4 for σ receptors and 5 mM, ice-cold Tris buffer pH 7.4 for PCP receptors. The filters were transferred to 5 ml of liquid scintillation fluid and the retained radioactivity was measured by liquid scintillation spectrometry.

In assay [2] the target is PCP RECEPTOR
Briefly: PCP receptor binding assay ([3H]-TCP displacement, brain membranes). Set-up: species or system guinea-pig (male Hartley). The conditions noted are these: for potency at PCP receptors (in words): hydrochloride. The method, then: as §1, §2, §3
(§4) Programs in Biomed. 17:107 (1983)].

In assay [3] the target is T2, DOPAMINE D2 (Cavia porcellus, UniProt H0VE83).
T2 construct: printed as cerebral cortical tissue, [3H]spiroperidol, haloperidol blank
Briefly: Dopamine D2 receptor binding ([3H]-spiroperidol). Set-up: species or system guinea-pig.
Source text: (§5) This example illustrates the testing of compounds of this invention in dopamine D2, 5-HT2, muscarinic acetylcholine, α1 -adrenoceptor and β-adrenoceptor receptor assays. The receptor assay methods are described in Eur. J. Pharmacol., 155:345 (1988) except that in the β-adrenoceptor assay, [^125 I]-pindolol was used instead of [^3 H] dihydroalprenolol.
(§6) In this study, guinea-pig brains were used for binding studies. Homogenization and centrifugation procedures for preparation of brain membranes for each receptor assay were the same as described in Example 4 for the σ and PCP receptors. However, brain regions, tissue contents, and buffers may differ depending on the assay. Conditions of binding assays for various receptors were as follows:
For dopamine D2 assay, 3 H-spiroperidol (0.15 nM) was incubated in a 2 ml assay (50 mM Tris-HCl, pH 7.4) for 2 hours at 23° C. with membranes from 12 mg of cerebral cortical tissue.
(§7) Filtration and washing conditions were the same as described above for the σ receptor assay. Nonspecific binding for each receptor was defined by the inclusion of 1 μM haloperidol for dopamine D2, 1 μM haloperidol for 5-HT2, 10 μM scopolamine for muscarinic acetylcholine, 10 μM prazosin for α1 -adrenoceptor, and 0.2 μM 1-propranolol for β-adrenoceptor. Retained radioactivity was measured by liquid scintillation spectrometry except for ^125 I-pindolol which was measured by the LKB gamma counter.
as §4

For assay [4], the system named is MUSCARINIC ACETYLCHOLINE
Format: binding, guinea-pig.
Source text: as §5, §6
For muscarinic acetylcholine assay, […]) [^3 H]-quinuclidinyl benzylate ([^3 H]-QNB) was incubated in a 2 ml assay (50 mM Tris-HCl, pH 7.4) for 2 hours at 23° C. with membranes from 2 mg of whole brain minus cerebellum.
as §7, §4

Assay [5] has as its target 5-HT2 (Cavia porcellus, UniProt A0A286Y537). Briefly: 5-HT2 receptor binding. The arrangement: species or system guinea-pig.
Source text: as §5, §6, §7, §4

The target in assay [6] is α1 -ADRENOCEPTOR
Briefly: α1-adrenoceptor binding ([3H]-prazosin). The arrangement: species or system guinea-pig.
Source text: as §5, §6
For α1 -adrenoceptor assay, [^3 H]-prazosin (0.4 nM) was incubated in a 1 ml assay (50 mM Tris-HCl, pH 7.4) for 1 hour at 23° C. with membranes from 1 mg of whole brain minus cerebellum.
as §7, §4

The target in assay [7] is β-ADRENOCEPTOR
Briefly: β-adrenoceptor binding ([125I]-pindolol). The arrangement: species or system guinea-pig.
Source text: as §5, §6
For β-adrenoceptor, [^125 I]-pindolol (0.05 nM) was incubated in a 1 ml assay (50 mM Tris-HCl, pH 7.4) for 1 hr at 23° C. with membranes from 1 mg of whole brain minus cerebellum.
as §7, §4

Where [8] appears, read: Table 4, IC50 and nM only stated in text, read-out: SIGMA.
Setting [9] is: Table 1, mean ± error (n), read-out: PCP RECEPTOR IC50.
The mark [10] stands for this setting: Table 4, IC50 and nM only stated in text, read-out: PCP.
Where [11] appears, read: Table 4, IC50 and nM only stated in text, read-out: MUSCARINIC ACETYLCHOLINE
Setting [12] is: read-out: potency (IC50) at muscarinic acetylcholine receptor.
Setting [13] is: Table 4, IC50 and nM only stated in text, read-out: 5-HT2.
The mark [14] stands for this setting: Table 4, IC50 and nM only stated in text, read-out: α1 -ADRENOCEPTOR
The mark [15] stands for this setting: Table 4, IC50 and nM only stated in text, read-out: β-ADRENOCEPTOR
Setting [16] is: read-out: IC50 / potency for PCP receptors.

T1 sequence (Q60492 whole entry): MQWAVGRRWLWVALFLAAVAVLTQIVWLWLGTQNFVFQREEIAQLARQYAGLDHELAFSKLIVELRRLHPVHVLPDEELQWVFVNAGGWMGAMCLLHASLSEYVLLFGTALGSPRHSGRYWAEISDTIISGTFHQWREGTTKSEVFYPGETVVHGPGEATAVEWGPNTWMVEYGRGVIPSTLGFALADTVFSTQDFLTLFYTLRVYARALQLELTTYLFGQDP
Sequence of 5-HT2 (A0A286Y537 1-470): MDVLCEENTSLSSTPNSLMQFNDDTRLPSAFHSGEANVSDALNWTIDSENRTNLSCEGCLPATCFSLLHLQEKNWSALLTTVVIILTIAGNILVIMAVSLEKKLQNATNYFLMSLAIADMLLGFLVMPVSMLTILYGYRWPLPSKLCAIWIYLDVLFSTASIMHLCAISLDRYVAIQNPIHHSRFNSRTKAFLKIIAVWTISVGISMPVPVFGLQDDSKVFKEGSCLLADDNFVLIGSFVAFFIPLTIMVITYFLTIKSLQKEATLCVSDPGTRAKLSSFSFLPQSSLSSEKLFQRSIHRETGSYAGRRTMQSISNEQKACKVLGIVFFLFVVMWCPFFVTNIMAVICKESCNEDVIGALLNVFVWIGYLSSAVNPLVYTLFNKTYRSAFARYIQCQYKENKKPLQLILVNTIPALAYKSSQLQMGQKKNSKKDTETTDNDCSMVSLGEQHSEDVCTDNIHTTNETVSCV
T2 sequence (H0VE83 entry or part of it): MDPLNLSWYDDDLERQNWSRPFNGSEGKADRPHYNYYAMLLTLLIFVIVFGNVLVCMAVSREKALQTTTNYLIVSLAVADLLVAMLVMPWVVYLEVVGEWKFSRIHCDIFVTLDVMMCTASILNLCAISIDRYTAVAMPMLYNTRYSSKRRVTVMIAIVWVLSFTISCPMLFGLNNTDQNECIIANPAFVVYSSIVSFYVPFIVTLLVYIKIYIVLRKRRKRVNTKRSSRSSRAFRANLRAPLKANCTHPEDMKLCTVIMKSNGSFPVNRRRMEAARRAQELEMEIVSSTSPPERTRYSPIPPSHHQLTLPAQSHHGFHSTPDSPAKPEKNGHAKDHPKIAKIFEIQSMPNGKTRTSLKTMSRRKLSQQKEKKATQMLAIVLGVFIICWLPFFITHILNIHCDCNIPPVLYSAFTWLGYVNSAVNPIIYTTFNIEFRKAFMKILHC

Regarding `O=C(OCCN1CCCCC1)C1(c2ccccc2)CCCCC1` [Compound 3, 2-(1-Piperidino)ethyl 1-phenylcyclohexane-1-carboxylate hydrochloride], the IC50 in assay [1] (Table 1, mean ± error (n), read-out: SIGMA RECEPTOR IC50) is 24 nM; in assay [1] (setting [8]), 26 ± 7 nM; in assay [1] (read-out: IC50 at σ receptors), below 100 nM; in assay [2] (setting [9]), 34900 nM; in assay [2] (setting [10]), 34900 nM; in assay [4] (setting [11]), 46 ± 7 nM. The IC50 in assay [4] (setting [12]) worked out at 46 nM; in assay [5] (setting [13]), 3660 nM; in assay [6] (setting [14]) it was 24100 nM; in assay [7] (setting [15]), 80400 nM. In addition, the “SIGMA RECEPTOR SLOPE” value in assay [1] (Table 1) is reported as 0.45 ± 0.04. For the same compound, in assay [1] (hydrochloride), the “potency at σ receptors (in words)” value is recorded as “increased the potency of the compound in the σ receptor assay; also recorded: very potent in the σ assay; also recorded: very high”. Besides, the “increased potency for σ receptors” value in assay [1] (relative to PCP (1)) was “more than 300 times”. The “potency at PCP receptors (in words)” value in assay [2] was “reduced the potency in the PCP receptor assay; also recorded: inactive in the PCP assay; also recorded: very weak or inactive in the PCP assay; also recorded: negligible; also recorded: low potency at PCP receptors”. In addition, the “decreased potency for PCP receptors” value in assay [2] (relative to PCP (1)) is recorded as “about 700 times”. Further, in assay [3], the “potency at dopamine D-2 receptors (in words)” value was “moderate potencies at dopamine D-2 and 5-HT2 receptors”. Moreover, the “potency at muscarinic acetylcholine receptors (in words)” value in assay [4] is on record as “quite potent at muscarinic acetylcholine receptors”. Moreover, the “potency at 5-HT2 receptors (in words)” value in assay [5] was “moderate potencies at dopamine D-2 and 5-HT2 receptors”.

In the case of `O=C(OCCN1CCCC1)C1(c2ccccc2)CCCCC1` [Compound 8, 2-(1-Pyrrolidino)ethyl 1-phenylcyclohexane-1-carboxylate hydrochloride], the “SIGMA RECEPTOR SLOPE” value in assay [1] (Table 1) is on record as 0.50 ± 0.02. The IC50 in assay [1] (setting [8]) is 5.1 ± 1.7 nM; in assay [1] (read-out: IC50 at σ receptors), 5 nM and < 100 nM; in assay [2] (setting [9]), 64700 nM; in assay [2] (setting [10]), 64700 nM; in assay [2] (setting [16]), around 64000 nM; in assay [4] (setting [11]) it was 123 ± 16 nM. Moreover, the IC50 in assay [4] (setting [12]) was 23 nM; in assay [5] (setting [13]), 2930 nM; in assay [6] (setting [14]), 23200 nM; in assay [7] (setting [15]) it was 85000 nM. In addition, in assay [1] (hydrochloride), the “potency at σ receptors (in words)” value was “σ receptor potency increased; also recorded: very high”. Also, the “potency at PCP receptors (in words)” value in assay [2] is “inactive in the PCP assay; also recorded: negligible; also recorded: low potency at PCP receptors”. The “potency at dopamine D-2 receptors (in words)” value in assay [3] is “moderate potencies at dopamine D-2 and 5-HT2 receptors”. For the same compound, the “potency at muscarinic acetylcholine receptors (in words)” value in assay [4] is “quite potent at muscarinic acetylcholine receptors”. For the same compound, the “potency at 5-HT2 receptors (in words)” value in assay [5] was “moderate potencies at dopamine D-2 and 5-HT2 receptors”.

For the compound `O=C(OCCN1CCOCC1)C1(c2ccccc2)CCCCC1` [Compound 12, 2-(4-Morpholino)ethyl 1-phenylcyclohexane-1-carboxylate hydrochloride], the “SIGMA RECEPTOR SLOPE” value in assay [1] (Table 1) worked out at 0.48 ± 0.05. Besides, the “potency at σ receptors (in words)” value in assay [1] (hydrochloride) was “σ receptor potency increased; also recorded: very potent in the σ assay; also recorded: very high”. Besides, the “σ potency compared with other known σ ligands (in words)” value in assay [1] (vs haloperidol, DTG, (+)-3-PPP, hydrochloride) is “not as great as other known σ ligands, such as for example haloperidol; also recorded: comparable to other σ ligands such a DTG and (+)-3-PPP”. In addition, the IC50 in assay [2] (setting [9]) is above 100000 nM; in assay [2] (setting [10]), above 100000 nM; in assay [2] (setting [16]) it was below 100000 nM; in assay [4] (setting [11]), 14000 nM; in assay [4] (setting [12]), 14000 nM; in assay [5] (setting [13]), 18700 nM. Further, the IC50 in assay [5] (read-out: potency for 5-HT2) is 18700 nM; in assay [6] (setting [14]), above 100000 nM; in assay [6] (read-out: potency for α1-adrenoceptor), above 100000 nM; in assay [7] (setting [15]), above 200000 nM; in assay [7] (read-out: potency for β-adrenoceptor), above 200000 nM. Moreover, the “potency at PCP receptors (in words)” value in assay [2] was “inactive in the PCP assay; also recorded: very weak or inactive in the PCP assay; also recorded: negligible; also recorded: low potency at PCP receptors; also recorded: relative inactivity”. The “more potent at σ receptors than at muscarinic acetylcholine receptors” value in assay [4] (selectivity σ vs muscarinic) was “at least 300 fold”. In addition, in assay [5] (selectivity σ vs 5-HT2), the “more potent at σ receptors than at 5-HT2 receptors” value is reported as at least 400 fold.
